Assay results as given in EP4635565A1, “PRENYLATED TETRAHYDROQUINOLINES AND QUINOLINES WITH PPAR AGONIST ACTIVITY” (Fundación para la Investigación del Hospital Clínico de la …, priority 2024, dated 2025).

How the values were obtained:
THP-1 cells = assay: Cytotoxicity, Annexin V-FITC/PI dual staining by flow cytometry; type: cell-based, human; settings: 30 and 100 µM, 24 h
Protocol: The cytotoxicity of tetrahydroquinoline and quinoline esters 5a, 5b, 8a and 8b was evaluated at 30 and 100 µM by flow cytometry to assess cell survival using an Annexin V-FITC/PI dual staining assay. THP-1 cells (3 × 10^4 cells per well) were seeded in 24-well plates and allowed to grow overnight. The medium was then replaced and incubations with the different compounds or DMSO were performed during 24 h. Then, all cells were processed with the Annexin V-assay kit (ANXCFK7, Immunostep, Salamanca, Spain) according to the manufacturer's instruction. A Becton Dickinson LSR Fortessa cytometer (BD Biosciences, Franklin Lakes, NJ, USA) was used for samples, and cell analysis were performed using FACSDiva X20 software.
The potential cytotoxic effects of the compounds of the invention 5a, 5b, 8a, and 8b on the human macrophage cell line THP-1 were evaluated by flow cytometry to assess cell survival using an Annexin V-FITC/PI dual staining assay. The THP-1 cells were treated with concentrations of 30 and 100 µM for 24 h.

[1] = test system: TNFα-induced proinflammatory genes; assay: TNFα-induced pro-inflammatory gene expression by RT-qPCR in L929sA WT cells; type: cell-based, mouse; settings: 10 µM for 1 h, then TNFa, total induction time 6 h
Protocol: RNA was isolated using the RNeasy Purification Kit (Qiagen) according to the manufacturer's instructions. cDNA was synthesised using a PrimeScript kit (Takara). RT-qPCR was performed using Light Cycler 480 SYBR Green I Master Mix (Roche).
(§1) PPARs play crucial roles in controlling inflammatory responses. NF-κB is a transcription factor that plays a pivotal role in the expression of multiple genes involved in the immune and inflammatory responses. To study the potential anti-inflammatory effects of the tetrahydroquinolines and quinolines of the invention, the NF-κB-dependent physiological human IL-8 promoter construct, p1481.IL8P-Luc+, which is stably integrated into L929sA cells, was tested. After transfection, cells were treated at 10 µM with 5a, 5b, 8a, or 8b prior to TNFa stimulation. […] Given the significant decrease in NF-κB-IL8P-Luc+ reporter gene activity observed after treatment with the 2- or 3-prenylated tetrahydroquinolines 5a and 5b and the 3-prenylated quinoline 8b, their potential anti-inflammatory effects at the transcriptional level for other inflammatory mediators was evaluated. To achieve this, the L929sA WT cells were treated with 5a, 5b and 8b at 10 µM for 1 h, followed by TNFa stimulation for a total induction time of 6 h. The expression of inflammatory genes was evaluated by RT-qPCR.

PDK4-(PPRE)3-Luc+ = assay: Pdk4 transactivation assay (PDK4-(PPRE)3-Luc+ reporter in L929sA cells); type: cell-based, mouse; settings: 10 µM, 6 h
Protocol: Transfection of L929sA cells stably expressing reporter genes was performed using the calcium phosphate precipitation protocol according to standard procedures with a 10-fold excess of the plasmid of interest in a pGL3-basic vector containing Luc+, a modified firefly luciferase gene (Promega Biotec, Madison, Wis,) USA. USA). The Pdk4 reporter was created using an enhancer site linked to the Pdk4 promoter containing three PPRE extracted from mouse liver genomic DNA. The aforementioned plasmid construct was then introduced into a pMet7 backbone, which had previously been cloned with a luciferase gene site, using Xhol and Sacl cut sites. The resulting construct was subjected to geneticin (neomycin) antibiotic selection to isolate individual clones. A stable cell line, designated Pdk4-Luc+, was subsequently established in L929sA cells, which also contained a constitutively expressed galactosidase reporter and a neomycin selection cassette.
Pyruvate Dehydrogenase Kinase 4 gene (Pdk4), a well-known target gene of PPARs, encodes a protein that regulates the phosphorylation and inactivation of the pyruvate dehydrogenase complex in response to physiological conditions. This response switches the energy source from glucose to fatty acids to maintain blood glucose levels to, thereby, increase lipid metabolism. Because it is a well-known target gene of PPARs, the effect of the 2- and 3-prenylated esters of tetrahydroquinolines and quinolines on a Pdk4 region reported to bind PPARα, was evaluated. The L929sA cells that were stably transfected with a PDK4-(PPRE)3-Luc+ reporter gene construct were used.

hPPARα = target: T1, hPPARα (Homo sapiens, UniProt Q07869); assay: PPAR transactivation assay, human chimeric PPAR/Gal4 reporter luciferase system in Cos-7 cells (PPARα); type: cell-based
T1 sequence (Q07869 167-468): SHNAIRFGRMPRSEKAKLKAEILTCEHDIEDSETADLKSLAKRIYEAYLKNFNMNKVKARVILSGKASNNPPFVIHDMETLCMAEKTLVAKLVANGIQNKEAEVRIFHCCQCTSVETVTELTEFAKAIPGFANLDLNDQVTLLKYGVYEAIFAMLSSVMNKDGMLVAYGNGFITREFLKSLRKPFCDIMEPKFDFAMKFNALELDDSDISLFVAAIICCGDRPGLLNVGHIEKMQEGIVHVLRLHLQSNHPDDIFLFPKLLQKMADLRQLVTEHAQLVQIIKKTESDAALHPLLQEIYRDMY
Protocol: Transfections were stopped after 16 h by adding DMEM/10% FCS. Cells were detached with trypsin, re-seeded in 96-well plates for 6 h in DMEM/10% FCS, and incubated for 24 h in DMEM/0.2% FCS with increasing concentrations of the test compounds or vehicle (DMSO, 0.1% final concentration). At the end of the experiment, cells were washed once with ice-cold PBS, lysed, and luciferase and β-galactosidase activities were measured. Luciferase activity was normalised to that of the internal control, β-galactosidase. All transfection experiments were performed at least five times.
EC50 values against human PPARα/Gal4, PPARβ/δ/Gal4 and PPARγ/Gal4 receptors.

NF-κB-IL8P-Luc+ = assay: NF-κB-IL8P transactivation assay (TNFα-stimulated L929sA cells); type: cell-based, mouse; settings: 10 µM, 1 h before TNF (2000 IU/ml), total induction time 6 h; compared to GW7647
Protocol: L929sA mouse fibroblasts were stably transfected using the calcium phosphate precipitation protocol, as described previously with p1481.IL8P-Luc+ plasmid construct. The indicated induction was performed at least in triplicates. All conditions were solvent-controlled. Subsequently, the cells were washed with PBS and lysed using TROPIX lysis buffer. Cellular luciferase levels were normalised to those of β-galactosidase (TROPIX, Bedford, MA, USA).
as §1

CCOC(=O)CC/C(C)=C/CCC1CCc2cc(OCc3ccccc3)ccc2N1C (stereo not shown) [Compound 5a, Ethyl (E)-7-(6-(benzyloxy)-1-methyl-1,2,3,4-tetrahydroquinolin-2-yl)-4-methylhept-4-enoate]
cytotoxic effects (cell survival) (THP-1 cells): No cytotoxic effects were observed
transcription of TNFα-induced proinflammatory genes [1]: downregulated the transcription of TNFα-induced proinflammatory genes such as Cc/5 and II-6
transactivation of the PDK4-Luc+ indicator (PDK4-(PPRE)3-Luc+; L929sA cells, compared to GW7647 at 1 µM): increased the transactivation of the PDK4-Luc+ indicator
maximal transactivation response compared with GW7647 (PDK4-(PPRE)3-Luc+; GW7647 at 1 µM as positive control): outperformed the maximal activity of the prior art compound GW7647
EC50 (hPPARα): 3.6 µM
Emax at 10 µM (hPPARα; COS-7, read-out: Efficacy (%) at 10 µmol/L PPARα): 76%
transactivation of the TNFα-dependent NF-κB-driven reporter (NF-κB-IL8P-Luc+): can repress the transactivation of the TNFα-dependent NF-κB-driven reporter
